Results reported in PMC10062662, “Quantitative determination of lurbinectedin, its unbound fraction and its metabolites in human plasma utilizing ultra-performance LC–MS/MS” (PLOS ONE, 2023).
Read-outs that look alike come from different tables or passages of the source.

How the values were obtained:
[1] = parameters: method as in PMID 30090974; details: cited from earlier work; for reduction of total plasma clearance: 443 cancer patients
[2] = Stability of stock and working solutions at -20°C; format: physicochemical; details: -20°C ±5°C
Protocol: The stability of stock and working solutions, as well the stability of IS stock solution, following storage at -20°C ±5°C were investigated by concordance verification by comparing the stored solution against a freshly prepared one.

[3] = Plasma protein binding by rapid equilibrium dialysis (RED) in K3-EDTA plasma from donors; format: in vitro ADME, human; details: human; for fraction unbound at 8 h, 100 ng/mL: RED 8 hours 37°C; for fraction unbound at 8 h, 100 ng/mL / fraction unbound at 8 h, 500 ng/mL: read-out: mean percent unbound
Source text: (§1) RED was considered the best alternative over other methods (e.g., ultrafiltration) to separate lurbinectedin unbound fraction (fu), due to high non-specific binding (NSB) of lurbinectedin leading to adsorption. The RED device consists of a cylinder of dialysis membrane with an 8-kDa molecular weight cut-off held in place by a polytetrafluoroethylene support; the dialysis membrane tube is closed at one end. The RED devices are disposable and used in a reusable polytetrafluoroethylene support plate (holds a maximum of 48 devices). The design of the plate and device allows for PBS to be added in such a way that it can circulate freely around the cylinder of dialysis membrane. In use, spiked plasma (400 μL) is added to the dialysis membrane cylinder part of the RED device, and PBS (600 μL) is added to the other side. The plate, device and volumes used result in a consistent fluid level across both sides of the membrane, preventing mass movement of fluid across the membrane due to hydrostatic pressure.
(§2) Each measurement was performed using three RED devices; the devices were placed in the plate and spiked plasma and PBS were added. The plate was then mixed on an incubating microplate shaker at 100 rpm and 37°C for 8 hours.
(§3) Both the plasma (diluted 1 in 20 with plasma:PBS 1:1, v:v) and PBS (diluted with plasma 1:1, v:v) were assayed in triplicate using the extraction and UPLC-MS/MS method described above. Transfer of the PBS from the incubation plate into an equivalent volume of plasma prior to assay was performed using pipette tips that had been pre-treated with Sigmacote®.
(§4) In vitro PPB experiments to determine lurbinectedin fu were conducted with RED in K3-EDTA plasma from donors. Fresh plasma (not previously frozen), previously frozen plasma (fresh plasma subjected to four cycles of freeze [at -80°C ±10°C for ≥12 hours] then thawed [at room temperature for 2 hours]) and diluted fresh plasma (not previously frozen, diluted 1:1 with PBS prior to incubation) were spiked to 100 ng/mL with lurbinectedin and then equilibrated with PBS in RED devices for 8 hours at 37°C and assayed.
(§5) In addition, the stability of lurbinectedin PPB in fresh plasma following storage at -80°C ±10°C was evaluated; aliquots of fresh plasma samples (not previously frozen) from three donors were spiked with 500 ng/mL of lurbinectedin. The samples were stored for at least 21, 30, 62 and 91 days prior to analysis; the day 0 aliquots were not frozen before analysis. The spiked aliquots from the three donors were equilibrated with PBS in RED devices in triplicate. The samples generated in the RED devices were analyzed in triplicate.

[4] = system: plasma protein; experiment: as above; format: in vitro ADME, human; details: for percent bound: 100 ng/mL, RED 8 hours 37°C
Source text: as §1, §2, §3, §4, §5

[5] = format: in vitro ADME; details: 20 ng/mL
Protocol: To ensure correct sample collection during the clinical trial procedures, whole-blood (using K3-EDTA as anticoagulant) stability was studied by spiking the blood (lurbinectedin at 20 ng/mL and M4 and M6 at 10 ng/mL). Aliquots of the whole blood were then centrifuged at 4°C for 0, 30, 60, 90 and 120 minutes post equilibration (15 minutes at 37°C) to produce plasma, which was then frozen prior to analysis. This was performed at room temperature (and in an ice bath for lurbinectedin). The derived plasma samples were analyzed in triplicate, and the criterion for acceptance was defined as having a response within ±15% of the zero-minute sample.

[6] = Non-specific binding in the absence of plasma proteins (RED method development); format: physicochemical; details: RED devices
Source text: To counteract the NSB, Sigmacote®-treated pipette tips were used.

[7] = Stability in human K3-EDTA plasma under different test conditions; format: in vitro ADME
Protocol: Likewise, a wide range of long-term stability tests reflecting the sort of real-world storage issues that can occur in hospital-based clinical studies (e.g., short-term storage at -20°C before transfer to -80°C, availability of -60°C but not -80°C), was evaluated to ensure plasma samples are analyzed before degradation can occur. Therefore, the following plasma stability tests were performed: room temperature, freeze thaw (one cycle consisted of 2 hours at room temperature followed by freezing for at least 12 hours at -80°C ± 10°C) and long-term (at -20°C ± 5°C, -60°C ± 10°C and -80°C ± 10°C). For each stability test, two concentrations (LQC and HQC) and six replicates per level were analyzed. For acceptance criteria, the precision (%CV) was ≤15% and the bias when compared with the nominal concentration was ±15%. […]

[8] = 4 freeze-thaw cycles, nom. conc. 0.3 ng/mL
[9] = 4 freeze-thaw cycles, nom. conc. 40 ng/mL
[10] = 37°C, 8 hours, nom. conc. 0.3 ng/mL
[11] = 37°C, 8 hours, nom. conc. 40 ng/mL
[12] = -20°C ±5°C, 23 days, nom. conc. 0.3 ng/mL
[13] = -20°C ±5°C, 23 days, nom. conc. 40 ng/mL
[14] = -60°C ±10°C, 245 days, nom. conc. 0.3 ng/mL
[15] = -60°C ±10°C, 245 days, nom. conc. 40 ng/mL
[16] = -80°C ±10°C, 853 days, nom. conc. 0.3 ng/mL
[17] = -80°C ±10°C, 853 days, nom. conc. 40 ng/mL
[18] = Ambient, 16.5 hours, nom. conc. 0.3 ng/mL
[19] = Ambient, 16.5 hours, nom. conc. 40 ng/mL

**Q.** Which hepatic extraction ratio [1] does the source give for `COc1ccc2[nH]c3c(c2c1)CCN[C@]31CS[C@@H]2c3c(OC(C)=O)c(C)c4c(c3[C@H](COC1=O)N1[C@@H]2[C@H]2c3c(cc(C)c(OC)c3O)C[C@@H]([C@@H]1O)N2C)OCO4` [Lurbinectedin] here?
**A.** 0.19

**Q.** And the “reduction of total plasma clearance” value ([1]; high alpha-1-acid glycoprotein (AAG))?
**A.** 28%

**Q.** What about the “reduction of total plasma clearance” value ([1]; low albumin) of the same compound?
**A.** 20%

**Q.** What about the “stability of working solution following storage for 7 days” value ([2]; 5 ng/mL in DMSO:ammonium acetate 10 mM ~pH 3 (1:1, v:v)) of the same compound?
**A.** not demonstrated

**Q.** What about the “stability of stock solution in DMSO” value ([2]; 1 mg/mL in DMSO) of the same compound?
**A.** ≥ 32 days

**Q.** And the fraction unbound at 8 h, 100 ng/mL ([3]; fresh K3-EDTA plasma diluted 1:1 with PBS, diluted fresh plasma (1:1 with PBS))?
**A.** 0.00668

**Q.** What about the fraction unbound at 8 h, 500 ng/mL ([3]; fresh K3-EDTA plasma from three donors (not frozen), fresh plasma from three donors, day 0 (not frozen)) of the same compound?
**A.** 0.00151 to 0.00335

**Q.** And the fraction unbound at 8 h ([3]; plasma, human plasma, RED (abstract))?
**A.** 0.004

**Q.** What about the fraction unbound at 8 h, 100 ng/mL ([3]; previously frozen K3-EDTA plasma (four freeze-thaw cycles), previously frozen plasma (four freeze-thaw cycles)) of the same compound?
**A.** 0.00443

**Q.** And the fraction unbound at 8 h, 500 ng/mL ([3]; three donors, day 21 after storage at -80°C ±10°C)?
**A.** 0.00206 to 0.00319

**Q.** And the fraction unbound at 8 h, 500 ng/mL ([3]; three donors, day 30 after storage at -80°C ±10°C)?
**A.** 0.00168 to 0.00266

**Q.** And the fraction unbound at 8 h, 500 ng/mL ([3]; three donors, day 62 after storage at -80°C ±10°C)?
**A.** 0.00196 to 0.00286

**Q.** What about the fraction unbound at 8 h, 500 ng/mL ([3]; three donors, day 91 after storage at -80°C ±10°C) of the same compound?
**A.** 0.00159 to 0.00213

**Q.** And the percent bound ([4]; diluted fresh plasma (1:1 with PBS))?
**A.** 99.3%

**Q.** What about the percent bound ([4]; fresh plasma (not previously frozen)) of the same compound?
**A.** 99.6%

**Q.** What about the fraction unbound at 8 h, 500 ng/mL ([4]; human, K3-EDTA plasma (fresh, from three donors), following storage at -80°C ±10°C for ≥91 days, read-out: PPB) of the same compound?
**A.** < 0.01

**Q.** What about the percent bound ([4]; previously frozen plasma (four freeze-thaw cycles)) of the same compound?
**A.** 99.6%

**Q.** And the “stability of PPB in fresh plasma following storage” value ([4]; storage at -80°C ±10°C, three donors)?
**A.** ≥ 91 days

**Q.** What about the “stability in human whole K3-EDTA blood” value [5] of the same compound?
**A.** ≥ 120 min

**Q.** What about the “non-specific binding (NSB)” value [6] of the same compound?
**A.** very high levels of NSB

**Q.** And the Bias [7, 8]?
**A.** -4%

**Q.** And the Measured conc. [7, 8]?
**A.** 0.289 ng/mL

**Q.** And the Bias [7, 9]?
**A.** -5%

**Q.** What about the Measured conc. [7, 9] of the same compound?
**A.** 38.0 ng/mL

**Q.** And the Bias [7, 10]?
**A.** -2%

**Q.** And the Measured conc. [7, 10]?
**A.** 0.293 ng/mL

**Q.** What about the Bias [7, 11] of the same compound?
**A.** 1%

**Q.** What about the Measured conc. [7, 11] of the same compound?
**A.** 40.2 ng/mL

**Q.** And the Bias [7, 12]?
**A.** -10%

**Q.** And the Measured conc. [7, 12]?
**A.** 0.271 ng/mL

**Q.** What about the Bias [7, 13] of the same compound?
**A.** -9%

**Q.** What about the Measured conc. [7, 13] of the same compound?
**A.** 36.2 ng/mL

**Q.** And the Bias [7, 14]?
**A.** -5%

**Q.** And the Measured conc. [7, 14]?
**A.** 0.285 ng/mL

**Q.** What about the Bias [7, 15] of the same compound?
**A.** -10%

**Q.** And the Measured conc. [7, 15]?
**A.** 36.1 ng/mL

**Q.** What about the Bias [7, 16] of the same compound?
**A.** -10%

**Q.** And the Measured conc. [7, 16]?
**A.** 0.269 ng/mL

**Q.** What about the Bias [7, 17] of the same compound?
**A.** -9%

**Q.** What about the Measured conc. [7, 17] of the same compound?
**A.** 36.3 ng/mL

**Q.** What about the Bias [7, 18] of the same compound?
**A.** -8%

**Q.** And the Measured conc. [7, 18]?
**A.** 0.276 ng/mL

**Q.** What about the Bias [7, 19] of the same compound?
**A.** 3%

**Q.** What about the Measured conc. [7, 19] of the same compound?
**A.** 41.0 ng/mL
